These compounds were tested against T1, human orexin type 2 receptor (Homo sapiens, UniProt O43614) (assay: Measurement of orexin type 2 receptor agonist activity (calcium fluorescence, CHO cells forcibly expressing human OX2 receptor)). Conditions: compound at 3 μM, DMSO = 0%, orexin A (human) 10 nM = 100%.
T1 construct: expressed in transfected cells
T1 sequence (O43614 1-444): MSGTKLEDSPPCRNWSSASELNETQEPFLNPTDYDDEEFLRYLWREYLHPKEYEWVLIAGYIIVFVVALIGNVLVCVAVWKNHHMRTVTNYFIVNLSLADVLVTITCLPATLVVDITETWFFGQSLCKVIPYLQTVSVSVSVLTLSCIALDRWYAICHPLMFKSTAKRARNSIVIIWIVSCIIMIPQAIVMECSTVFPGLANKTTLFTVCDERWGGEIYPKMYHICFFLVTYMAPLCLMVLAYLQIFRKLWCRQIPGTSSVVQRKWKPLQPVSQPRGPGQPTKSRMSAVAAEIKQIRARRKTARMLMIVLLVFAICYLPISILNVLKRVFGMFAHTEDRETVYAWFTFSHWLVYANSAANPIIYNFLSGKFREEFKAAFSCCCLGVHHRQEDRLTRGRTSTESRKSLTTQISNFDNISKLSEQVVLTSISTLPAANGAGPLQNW
Type: cell-based
Excerpt: To obtain a cell clone stably expressing human orexin type 2 receptor, human orexin type 2 receptor cDNA was inserted into pcDNA3.1(+) plasmid vector (Invitrogen), and a plasmid DNA for expression of human orexin type 2 receptor (pcDNA3.1(+)/hOX2R) was cloned. The plasmid DNA was introduced into CHO-K1 cell by an electroporation method, and human orexin type 2 receptor-expressing clonal cells were obtained by limiting dilution method using G418 drug resistance as a selection marker.
CHO cells forcibly expressing human OX2 receptor were seeded in each well of 384 well black transparent bottom plate (BD Falcon) at 10,000 cells/well, and cultured for one day in a 5% CO2 incubator at 37° C. After removal of the medium in the cell plate, assay buffer A containing a calcium indicator (HBSS (Thermo Fisher Scientific), 20 mM HEPES (Thermo Fisher Scientific), 0.1% BSA (Sigma-Aldrich), 2.5 μg/mL Fluo-4 AM (DOJINDO Chemical), 0.08% Pluronic F127 (DOJINDO Chemical), 1.25 mM probenecid (DOJINDO Chemical)) was added thereto at 30 μL/well. The plate was stood for 30 min in a 5% CO2 incubator at 37° C., and further stood at room temperature for 30 min. A test compound prepared by diluting with assay buffer B (HBSS, 20 mM HEPES, 0.1% BSA) was added thereto at 10 μL/well, and the fluorescence value was measured by FDSSμCELL (Hamamatsu Photonics K.K.) every one sec for 1 min, and thereafter every two sec for 1 min 40 sec. The activity (%) of the test compound was calculated assuming that variation in the fluorescence value when DMSO was added instead of the test compound was 0%, and variation in the fluorescence value when orexin A (human) (PEPTIDE INSTITUTE, INC.) was added at the final concentration of 10 nM was 100%.

Row | OX2R agonist activity (3 μM, %) [%] | SMILES
1 | 92 | Cc1ccc2n(c1=O)C(COC1CCC(C(C)C)CC1)C(NS(=O)(=O)N(C)C)CC2 (racemic) [Example 28, rac-N,N-dimethyl-N′-[(3S,4R)-7-methyl-6-oxo-4-({[(1s,4S)-4-(propan-2-yl)cyclohexyl]oxy}methyl)-1,3,4,6-tetrahydro-2H-quinolizin-3-yl]sulfuric diamide]
2 | 83 | Cc1ccc2n(c1=O)C(COC1CCC(c3ccccc3)CC1)C(NS(=O)(=O)N(C)C)CC2 (racemic) [Example 29, rac-N,N-dimethyl-N′-[(3S,4R)-7-methyl-6-oxo-4-({[(1s,4S)-4-phenylcyclohexyl]oxy}methyl)-1,3,4,6-tetrahydro-2H-quinolizin-3-yl]sulfuric diamide]
3 | 94 | Cc1ccc2n(c1=O)C(COC1CCC(C(C)(C)C)CC1)C(NS(=O)(=O)N(C)C)CC2 (racemic) [Example 30, rac-N′-[(3S,4R)-4-({[(1s,4S)-4-tert-butylcyclohexyl]oxy}methyl)-7-methyl-6-oxo-1,3,4,6-tetrahydro-2H-quinolizin-3-yl]-N,N-dimethylsulfuric diamide]
4 | 89 | Cc1ccccc1C1CCC(OCC2C(NS(=O)(=O)N(C)C)CCc3ccc(C)c(=O)n32)CC1 (racemic) [Example 31, rac-N,N-dimethyl-N′-[(3S,4R)-7-methyl-4-({[(1s,4S)-4-(2-methylphenyl)cyclohexyl]oxy}methyl)-6-oxo-1,3,4,6-tetrahydro-2H-quinolizin-3-yl]sulfuric diamide]
5 | 81 | Cc1cccc(C2CCC(OCC3C(NS(=O)(=O)N(C)C)CCc4ccc(C)c(=O)n43)CC2)c1 (racemic) [Example 32, rac-N,N-dimethyl-N′-[(3S,4R)-7-methyl-4-({[(1s,4S)-4-(3-methylphenyl)cyclohexyl]oxy}methyl)-6-oxo-1,3,4,6-tetrahydro-2H-quinolizin-3-yl]sulfuric diamide]
6 | 78 | Cc1ccc(C2CCC(OCC3C(NS(C)(=O)=O)CCc4ccc(C)c(=O)n43)CC2)cc1 (racemic) [Example 33, rac-N-[(3S,4R)-7-methyl-4-({[(1s,4S)-4-(4-methylphenyl)cyclohexyl]oxy}methyl)-6-oxo-1,3,4,6-tetrahydro-2H-quinolizin-3-yl]methanesulfonamide]
7 | 78 | CCS(=O)(=O)NC1CCc2ccc(C)c(=O)n2C1COC1CCC(c2ccc(C)cc2)CC1 (racemic) [Example 34, rac-N-[(3S,4R)-7-methyl-4-({[(1s,4S)-4-(4-methylphenyl)cyclohexyl]oxy}methyl)-6-oxo-1,3,4,6-tetrahydro-2H-quinolizin-3-yl]ethanesulfonamide]
8 | 88 | Cc1ccc(C2CCC(OCC3C(NS(=O)(=O)N(C)C)CCc4ccc(C)c(=O)n43)CC2)cc1 (racemic) [Example 35, rac-N,N-dimethyl-N′-[(3S,4R)-7-methyl-4-({[(1s,4S)-4-(4-methylphenyl)cyclohexyl]oxy}methyl)-6-oxo-1,3,4,6-tetrahydro-2H-quinolizin-3-yl]sulfuric diamide]
9 | 84 | Cc1ccc(C2CCC(OCC3C(NS(=O)(=O)C4CC4)CCc4ccc(C)c(=O)n43)CC2)cc1 (racemic) [Example 36, rac-N-[(3S,4R)-7-methyl-4-({[(1s,4S)-4-(4-methylphenyl)cyclohexyl]oxy}methyl)-6-oxo-1,3,4,6-tetrahydro-2H-quinolizin-3-yl]cyclopropanesulfonamide]
10 | 94 | Cc1ccc2n(c1=O)C(COC1CCC(C(F)(F)F)CC1)C(NS(C)(=O)=O)CC2 (racemic) [Example 37, rac-N-[(3S,4R)-7-methyl-6-oxo-4-({[(1s,4S)-4-(trifluoromethyl)cyclohexyl]oxy}methyl)-1,3,4,6-tetrahydro-2H-quinolizin-3-yl]methanesulfonamide]
11 | 88 | CCS(=O)(=O)NC1CCc2ccc(C)c(=O)n2C1COC1CCC(C(F)(F)F)CC1 (racemic) [Example 38, rac-N-[(3S,4R)-7-methyl-6-oxo-4-({[(1s,4S)-4-(trifluoromethyl)cyclohexyl]oxy}methyl)-1,3,4,6-tetrahydro-2H-quinolizin-3-yl]ethanesulfonamide]
12 | 89 | Cc1ccc2n(c1=O)C(COC1CCC(c3ccc(F)cc3)CC1)C(NS(C)(=O)=O)CC2 (racemic) [Example 40, rac-N-[(3S,4R)-4-({[(1s,4S)-4-(4-fluorophenyl)cyclohexyl]oxy}methyl)-7-methyl-6-oxo-1,3,4,6-tetrahydro-2H-quinolizin-3-yl]methanesulfonamide]
13 | 95 | Cc1ccc2n(c1=O)C(COC1CCC(c3ccccc3F)CC1)C(NS(=O)(=O)C1CC1)CC2 (racemic) [Example 45, rac-N-[(3S,4R)-4-({[(1s,4S)-4-(2-fluorophenyl)cyclohexyl]oxy}methyl)-7-methyl-6-oxo-1,3,4,6-tetrahydro-2H-quinolizin-3-yl]cyclopropanesulfonamide]
14 | 95 | CCC1CCC(OCC2C(NS(C)(=O)=O)CCc3c(C)cc(C)c(=O)n32)CC1 (racemic) [Example 48, rac-N-[(3S,4R)-4-({[(1s,4S)-4-ethylcyclohexyl]oxy}methyl)-7,9-dimethyl-6-oxo-1,3,4,6-tetrahydro-2H-quinolizin-3-yl]methanesulfonamide]
15 | 88 | Cc1ccc2n(c1=O)C(COC1CCC(C(F)F)CC1)C(NS(C)(=O)=O)CC2 (racemic) [Example 55, N-[(3SR,4RS)-4-({[4-(difluoromethyl)cyclohexyl]oxy}methyl)-7-methyl-6-oxo-1,3,4,6-tetrahydro-2H-quinolizin-3-yl]methanesulfonamide]
16 | 84 | COC(C)C1CCC(OCC2C(NS(C)(=O)=O)CCc3ccc(C)c(=O)n32)CC1 (racemic) [Example 56, N-[(3SR,4RS)-4-({[(1s,4S)-4-(1-methoxyethyl)cyclohexyl]oxy}methyl)-7-methyl-6-oxo-1,3,4,6-tetrahydro-2H-quinolizin-3-yl]methanesulfonamide]
17 | 95 | CCC(O)C1CCC(OCC2C(NS(C)(=O)=O)CCc3ccc(C)c(=O)n32)CC1 (racemic) [Example 58, N-[(3SR,4RS)-4-({[4-(1-hydroxypropyl)cyclohexyl]oxy}methyl)-7-methyl-6-oxo-1,3,4,6-tetrahydro-2H-quinolizin-3-yl]methanesulfonamide]
18 | 93 | CCOC1CCC(OCC2C(NS(C)(=O)=O)CCc3ccc(C)c(=O)n32)CC1 (racemic) [Example 59, rac-N-[(3S,4R)-4-({[(1s,4S)-4-ethoxycyclohexyl]oxy}methyl)-7-methyl-6-oxo-1,3,4,6-tetrahydro-2H-quinolizin-3-yl]methanesulfonamide]
19 | 103 | Cc1ccc2n(c1=O)C(COC1CCC(OC(C)C)CC1)C(NS(C)(=O)=O)CC2 (racemic) [Example 61, rac-N-{(3S,4R)-7-methyl-6-oxo-4-[({(1s,4S)-4-[(propan-2-yl)oxy]cyclohexyl}oxy)methyl]-1,3,4,6-tetrahydro-2H-quinolizin-3-yl)methanesulfonamide]
20 | 95 | COC(C)(C)C1CCC(OCC2C(NS(C)(=O)=O)CCc3ccc(C)c(=O)n32)CC1 (racemic) [Example 74, rac-N-[(3S,4R)-4-(([(1s,4S)-4-(2-methoxypropan-2-yl)cyclohexyl]oxy)methyl)-7-methyl-6-oxo-1,3,4,6-tetrahydro-2H-quinolizin-3-yl]methanesulfonamide]
21 | 93 | CCCCCC1CCC(OCC2C(NS(=O)(=O)C3CC3)CCc3ccc(C)c(=O)n32)CC1 (racemic) [Example 76, rac-N-[(3S,4R)-7-methyl-6-oxo-4-({[(1r,4S)-4-pentylcyclohexyl]oxy}methyl)-1,3,4,6-tetrahydro-2H-quinolizin-3-yl]cyclopropanesulfonamide]
22 | 99 | CCCCC1CCC(OCC2C(NS(C)(=O)=O)CCc3ccc(C)c(=O)n32)CC1 (racemic) [Example 80, rac-N-[(3S,4R)-4-({[(1r,4S)-4-butylcyclohexyl]oxy}methyl)-7-methyl-6-oxo-1,3,4,6-tetrahydro-2H-quinolizin-3-yl]methanesulfonamide]

Reference: patent US12448377B2, “Heterocyclic compound” (Takeda Pharmaceutical Company Limited, priority 2019, dated 2025)
